Experimental findings from ChEMBL document CHEMBL1201862, “PubChem BioAssay data set” (2004) are described below.

Assay [1] deals with Tyrosine-protein phosphatase non-receptor type 11 (Homo sapiens, UniProt Q06124). The experiment in a line: SHP2 phosphatase inhibition, dose response, selectivity assay for STEP inhibitor project, biochemical (AID 602367). It is filed as functional. The conditions noted are these: read-out: IC50_Mean.
In assay [2] the target is Tyrosine-protein phosphatase non-receptor type 5 (Homo sapiens, UniProt P54829). Nature of the assay: STEP phosphatase inhibitors, confirmation, biochemical, fluorescence intensity, uHTS hits (AID 602372). Format: functional. As to conditions: read-out: IC50_Mean.
In assay [3] the target is Dual specificity protein phosphatase 3 (Homo sapiens, UniProt P51452). The experiment in a line: VHR phosphatase inhibition, dose response, selectivity assay for STEP inhibitor project, biochemical (AID 602374). As to conditions: read-out: IC50_Mean. Format: functional.
Assay [4] is described as follows: Inhibition of T. cruzi Tulahuen strain amastigotes in L-6 muscle cells Measured in Cell-Based and Microorganism Combination System Using Plate Reader - 2138-03_Inhibitor_Dose_CherryPick_Activity. As to conditions: Rattus norvegicus, L6. It is filed as functional.
A short description of assay [5]: cytotoxicity in L-6 rat myocytes, dose response, cytotoxicity control, cell-based, plate reader, cherry-pick (AID 651896). It is filed as functional.
Assay [6] in a line: Inhibition of Plasmodium falciparum NF54 Measured in Cell-Based System Using Plate Reader - 2138-11_Inhibitor_Dose_CherryPick_Activity. It is filed as functional.
The nature of assay [7]: L. donovani amastigote growth inhibition, dose response, axenic amastigotes, plate reader, cherry pick (AID 651891). Format: functional, cell-based. As to conditions: Leishmania donovani.
Assay [8] is described as follows: intracellular Trypanosoma cruzi inhibitors in host cells – cell-based, plate reader, cherry-pick samples, set 3, dose response (AID 651818).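 Also: compounds incubated with infected cells for about four days.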 It is filed as functional.
Assay [9] in a line: T. b. rhodesiense proliferation inhibition, dose response, STIB900 strain, plate reader, cherry pick (AID 651893). Format: functional, cell-based. The conditions noted are these: Trypanosoma brucei.
Assay [10] is described as follows: T. cruzi intracellular amastigote growth inhibition, dose response, imaging, CA-I/72 strain, bovine embryo skeletal muscle, dry powder (AID 651885). Format: functional, cell-based.
Assay [11] deals with T1, Carboxy-terminal domain RNA polymerase II polypeptide A small phosphatase 1 (Homo sapiens, UniProt Q9GZU7).
T1 sequence (Q9GZU7 whole entry): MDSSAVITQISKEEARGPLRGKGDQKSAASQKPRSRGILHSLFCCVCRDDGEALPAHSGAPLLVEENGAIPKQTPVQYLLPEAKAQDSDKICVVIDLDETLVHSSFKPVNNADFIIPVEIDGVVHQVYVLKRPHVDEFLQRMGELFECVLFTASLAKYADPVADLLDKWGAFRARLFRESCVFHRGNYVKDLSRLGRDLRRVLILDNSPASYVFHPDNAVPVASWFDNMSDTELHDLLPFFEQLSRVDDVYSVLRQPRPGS
Nature of the assay: inhibitors of CTDSP1, concentration-response testing, biochemical assay, absorbance-based, actives from ultra-high-throughput screening (AID 540297). It is filed as functional.

Assay [12] addresses T2, Low molecular weight phosphotyrosine protein phosphatase (Homo sapiens, UniProt P24666).
T2 sequence (P24666 whole entry): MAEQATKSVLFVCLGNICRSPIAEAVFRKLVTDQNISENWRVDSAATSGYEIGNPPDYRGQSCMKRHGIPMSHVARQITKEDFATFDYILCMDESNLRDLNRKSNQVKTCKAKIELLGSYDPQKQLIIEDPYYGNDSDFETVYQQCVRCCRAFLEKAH
Format: functional. As to conditions: read-out: IC50_Mean.

The target in assay [13] is T2, Low molecular weight phosphotyrosine protein phosphatase. It is filed as functional. As to conditions: read-out: IC50_Mean. The source holds these as a separate data set.
The target in assay [14] is T3, Tyrosine-protein phosphatase non-receptor type 22 (Homo sapiens, UniProt Q9Y2R2).
T3 sequence (Q9Y2R2 whole entry): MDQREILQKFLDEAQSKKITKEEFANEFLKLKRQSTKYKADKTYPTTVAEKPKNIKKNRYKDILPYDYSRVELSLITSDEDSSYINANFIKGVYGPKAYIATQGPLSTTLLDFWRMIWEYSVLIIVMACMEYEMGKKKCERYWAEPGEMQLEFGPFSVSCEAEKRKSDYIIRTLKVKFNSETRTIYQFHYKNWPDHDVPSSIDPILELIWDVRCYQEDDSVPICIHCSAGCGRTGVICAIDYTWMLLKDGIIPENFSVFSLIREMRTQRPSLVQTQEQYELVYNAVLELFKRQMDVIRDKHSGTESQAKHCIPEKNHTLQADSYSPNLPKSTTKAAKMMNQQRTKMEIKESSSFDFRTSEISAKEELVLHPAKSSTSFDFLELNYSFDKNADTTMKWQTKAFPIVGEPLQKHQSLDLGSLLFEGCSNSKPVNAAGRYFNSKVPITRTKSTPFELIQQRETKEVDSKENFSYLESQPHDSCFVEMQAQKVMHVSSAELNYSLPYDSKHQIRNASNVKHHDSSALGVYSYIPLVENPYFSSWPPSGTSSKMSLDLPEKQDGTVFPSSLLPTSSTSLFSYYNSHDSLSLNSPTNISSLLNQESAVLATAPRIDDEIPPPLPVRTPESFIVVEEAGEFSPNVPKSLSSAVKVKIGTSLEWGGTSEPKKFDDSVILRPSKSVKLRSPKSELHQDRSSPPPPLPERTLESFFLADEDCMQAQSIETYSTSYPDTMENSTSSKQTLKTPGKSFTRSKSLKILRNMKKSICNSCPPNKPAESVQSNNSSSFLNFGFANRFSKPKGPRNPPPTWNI
The experiment in a line: LYP phosphatase inhibition for selectivity, dose response, selectivity assay for LMPTP inhibitor project, biochemical, fluorescence, LYP catalytic domain (AID 652006). The conditions noted are these: read-out: IC50_Mean. Format: functional.

In a further assay the test system is HEK293. The experiment in a line: inhibitors of LMP1-driven NF-kB reporter, dose response, cell-based, HEK293, luciferase, cherry-pick (AID 588343). As to conditions: Homo sapiens, HEK293. It is filed as functional, Homo sapiens.
For assay [15], the target named is T4, Interleukin-8 (Homo sapiens, UniProt P10145).
T4 sequence (P10145 whole entry): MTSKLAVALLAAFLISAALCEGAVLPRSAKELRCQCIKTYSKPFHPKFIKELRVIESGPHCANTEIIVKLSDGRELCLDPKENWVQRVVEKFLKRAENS
Nature of the assay: Dose Response confirmation of uHTS small molecule hits for cystic fibrosis induced NFkb Inhibitors in a TNFa-induced IL8 counterscreen. Format: functional. As to conditions: read-out: IC50_Mean. Background: A counterscreen serves to expose hits that act by an unwanted route or on another target.

For assay [16], the target named is T4, Interleukin-8. The experiment in a line: Dose Response confirmation of uHTS small molecule hits for cystic fibrosis induced NFkb Inhibitors in a PAF-induced IL8 counterscreen. It is filed as functional. As to conditions: read-out: IC50_Mean.
The next assay deals with Nonstructural protein 1 (Influenza A virus, UniProt Q194T2). It is filed as functional, Influenza A virus (A/California/07/2009(H1N1)).
In assay [17] the target is T5, Replicative DNA helicase DnaB (Mycobacterium tuberculosis, UniProt P9WMR3).
T5 sequence (P9WMR3 whole entry): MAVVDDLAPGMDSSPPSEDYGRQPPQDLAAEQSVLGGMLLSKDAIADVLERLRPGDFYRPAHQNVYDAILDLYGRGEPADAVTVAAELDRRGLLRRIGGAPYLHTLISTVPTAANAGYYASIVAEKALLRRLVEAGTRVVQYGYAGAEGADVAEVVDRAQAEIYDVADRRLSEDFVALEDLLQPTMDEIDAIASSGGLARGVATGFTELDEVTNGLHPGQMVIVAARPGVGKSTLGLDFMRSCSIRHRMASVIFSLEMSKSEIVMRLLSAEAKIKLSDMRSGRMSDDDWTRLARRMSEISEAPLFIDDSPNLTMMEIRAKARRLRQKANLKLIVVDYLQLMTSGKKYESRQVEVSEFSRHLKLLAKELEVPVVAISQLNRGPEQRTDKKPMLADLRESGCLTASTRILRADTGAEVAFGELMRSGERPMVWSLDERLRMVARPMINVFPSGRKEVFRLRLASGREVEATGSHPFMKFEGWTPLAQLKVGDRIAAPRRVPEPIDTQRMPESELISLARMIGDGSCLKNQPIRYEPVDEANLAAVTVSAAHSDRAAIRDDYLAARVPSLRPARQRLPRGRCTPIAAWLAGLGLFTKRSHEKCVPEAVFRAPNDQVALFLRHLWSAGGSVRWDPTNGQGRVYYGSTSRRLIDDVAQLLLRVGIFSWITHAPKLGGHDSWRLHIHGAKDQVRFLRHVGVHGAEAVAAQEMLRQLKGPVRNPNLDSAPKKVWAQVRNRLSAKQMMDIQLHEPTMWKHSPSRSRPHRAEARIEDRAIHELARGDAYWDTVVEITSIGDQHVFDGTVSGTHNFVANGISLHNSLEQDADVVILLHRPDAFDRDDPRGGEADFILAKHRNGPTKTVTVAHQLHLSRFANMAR
The experiment in a line: DnaB intein splicing inhibitors, dose response, biochemical, cell-free fluorescence (AID 449749). It is filed as functional.

The target of assay [18] is Apoptotic protease-activating factor 1 (Homo sapiens, UniProt O14727). It is filed as functional.
The next assay has as its target T6, Protein RecA (Mycobacterium tuberculosis, UniProt P9WHJ3).
T6 sequence (P9WHJ3 whole entry): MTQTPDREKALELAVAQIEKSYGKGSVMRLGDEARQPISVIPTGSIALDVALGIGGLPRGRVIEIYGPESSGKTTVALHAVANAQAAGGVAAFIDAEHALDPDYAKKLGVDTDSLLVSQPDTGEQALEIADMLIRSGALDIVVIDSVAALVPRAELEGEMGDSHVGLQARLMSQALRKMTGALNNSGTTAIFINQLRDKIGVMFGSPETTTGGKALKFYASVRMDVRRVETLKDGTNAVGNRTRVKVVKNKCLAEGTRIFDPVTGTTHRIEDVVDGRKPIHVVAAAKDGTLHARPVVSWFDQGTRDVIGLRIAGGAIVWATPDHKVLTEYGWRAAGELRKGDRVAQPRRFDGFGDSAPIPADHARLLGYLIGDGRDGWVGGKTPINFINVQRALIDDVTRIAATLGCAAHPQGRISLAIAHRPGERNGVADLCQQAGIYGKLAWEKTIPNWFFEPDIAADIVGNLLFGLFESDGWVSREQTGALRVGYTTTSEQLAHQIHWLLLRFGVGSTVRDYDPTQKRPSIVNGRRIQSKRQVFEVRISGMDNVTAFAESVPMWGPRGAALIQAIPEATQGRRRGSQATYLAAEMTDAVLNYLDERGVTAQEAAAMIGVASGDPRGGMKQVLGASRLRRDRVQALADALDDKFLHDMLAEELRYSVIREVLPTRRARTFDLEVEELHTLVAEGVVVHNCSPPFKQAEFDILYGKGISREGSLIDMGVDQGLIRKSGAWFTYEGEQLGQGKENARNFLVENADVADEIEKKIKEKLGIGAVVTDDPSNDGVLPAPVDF
The experiment in a line: Fluorescence Cell-Free Homogeneous Dose Retest to Identify Inhibitors of RecA-Intein Splicing Activity. [Related pubchem assays (depositor defined):AID2097, AID2223, AID489010, AID492950]. Format: functional.

The nature of assay [19]: growth suppression of PTEN-null colon cells, dose response, cell-based, HCT116 PTEN knockout (AID 1047).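 Also: HCT116 colon tumor cells with PTEN knocked out; cells exposed to compound for 60 hours before readout; potency for loss of cell viability measured by luminescence.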 It is filed as functional.
The nature of assay [20]: growth suppression of beta-catenin-knockout colon cells, dose response, cell-based, HCT116, human colon tumor (AID 1045).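 Also: HCT116 colon tumor cells with beta catenin knocked out; cells exposed to compound for 60 hours.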 Format: functional.
The target of assay [21] is DNA repair and recombination protein RAD54-like (Homo sapiens, UniProt Q92698). Nature of the assay: inhibitors of human RAD54 branch migration, confirmation, biochemical, fluorescence, cherry-picked samples, dose series (AID 651657). Format: functional.
The target in a further assay is Cytochrome P450 3A4 (Homo sapiens, UniProt P08684).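 Also: CYP3A4 tested as one member of a cytochrome P450 panel screen.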

Structures are written as SMILES. Calls of active or inactive are those of the source.

Chain of Tyrosine-protein phosphatase non-receptor type 11 (Q06124 whole entry): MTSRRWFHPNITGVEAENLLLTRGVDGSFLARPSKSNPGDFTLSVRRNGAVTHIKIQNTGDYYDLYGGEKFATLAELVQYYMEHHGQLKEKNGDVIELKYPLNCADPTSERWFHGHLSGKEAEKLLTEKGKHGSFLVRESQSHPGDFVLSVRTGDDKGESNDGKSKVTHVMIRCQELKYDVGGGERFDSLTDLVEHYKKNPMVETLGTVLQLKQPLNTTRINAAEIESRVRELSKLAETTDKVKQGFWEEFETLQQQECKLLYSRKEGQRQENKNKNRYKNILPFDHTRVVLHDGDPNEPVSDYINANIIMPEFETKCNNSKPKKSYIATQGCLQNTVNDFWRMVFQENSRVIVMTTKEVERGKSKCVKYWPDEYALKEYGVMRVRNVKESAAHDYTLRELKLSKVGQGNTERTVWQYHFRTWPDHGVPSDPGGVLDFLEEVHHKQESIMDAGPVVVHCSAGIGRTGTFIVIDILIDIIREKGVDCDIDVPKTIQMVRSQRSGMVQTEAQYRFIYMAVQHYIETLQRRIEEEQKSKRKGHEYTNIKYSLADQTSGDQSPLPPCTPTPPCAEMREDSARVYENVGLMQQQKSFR
Chain of Tyrosine-protein phosphatase non-receptor type 5 (P54829 whole entry): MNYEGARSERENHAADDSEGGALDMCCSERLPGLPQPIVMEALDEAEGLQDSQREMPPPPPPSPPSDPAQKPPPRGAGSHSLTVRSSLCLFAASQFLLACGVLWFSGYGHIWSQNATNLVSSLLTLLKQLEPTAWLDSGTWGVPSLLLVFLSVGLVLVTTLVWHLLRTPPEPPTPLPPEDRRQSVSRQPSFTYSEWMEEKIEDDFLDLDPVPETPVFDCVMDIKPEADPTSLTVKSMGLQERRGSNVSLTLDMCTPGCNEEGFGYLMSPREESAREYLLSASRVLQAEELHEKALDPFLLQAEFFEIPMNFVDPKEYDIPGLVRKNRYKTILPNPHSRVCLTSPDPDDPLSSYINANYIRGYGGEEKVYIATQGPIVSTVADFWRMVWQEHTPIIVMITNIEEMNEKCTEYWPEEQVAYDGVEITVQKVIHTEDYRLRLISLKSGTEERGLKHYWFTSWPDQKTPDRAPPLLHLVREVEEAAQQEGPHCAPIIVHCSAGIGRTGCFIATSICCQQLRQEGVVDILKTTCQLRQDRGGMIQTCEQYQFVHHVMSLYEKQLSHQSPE
Chain of DNA repair and recombination protein RAD54-like (Q92698 whole entry): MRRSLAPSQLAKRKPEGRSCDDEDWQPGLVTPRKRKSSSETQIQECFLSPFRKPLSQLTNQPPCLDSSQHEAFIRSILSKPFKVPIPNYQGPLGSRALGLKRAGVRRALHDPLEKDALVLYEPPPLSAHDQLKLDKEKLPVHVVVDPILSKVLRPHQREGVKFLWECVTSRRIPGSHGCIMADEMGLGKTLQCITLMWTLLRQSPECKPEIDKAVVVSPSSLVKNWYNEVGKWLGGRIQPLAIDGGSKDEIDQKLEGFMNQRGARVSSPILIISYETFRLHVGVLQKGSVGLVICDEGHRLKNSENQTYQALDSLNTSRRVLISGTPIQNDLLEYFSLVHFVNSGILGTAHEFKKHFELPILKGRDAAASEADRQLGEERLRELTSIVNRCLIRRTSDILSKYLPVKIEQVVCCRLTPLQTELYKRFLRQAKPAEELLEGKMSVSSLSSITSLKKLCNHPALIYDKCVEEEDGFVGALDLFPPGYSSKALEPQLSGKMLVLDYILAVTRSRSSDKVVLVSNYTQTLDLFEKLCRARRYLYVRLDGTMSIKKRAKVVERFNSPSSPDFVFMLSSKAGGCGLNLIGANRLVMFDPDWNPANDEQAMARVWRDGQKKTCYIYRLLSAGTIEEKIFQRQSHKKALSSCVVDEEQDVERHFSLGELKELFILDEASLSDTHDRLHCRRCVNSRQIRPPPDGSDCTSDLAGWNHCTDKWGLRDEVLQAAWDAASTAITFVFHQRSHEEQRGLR
Chain of Dual specificity protein phosphatase 3 (P51452 whole entry): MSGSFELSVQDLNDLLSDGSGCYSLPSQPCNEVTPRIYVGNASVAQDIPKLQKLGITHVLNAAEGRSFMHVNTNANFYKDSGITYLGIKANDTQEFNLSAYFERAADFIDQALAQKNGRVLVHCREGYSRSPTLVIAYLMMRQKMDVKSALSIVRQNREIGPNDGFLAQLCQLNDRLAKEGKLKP
Chain of Apoptotic protease-activating factor 1 (O14727 whole entry): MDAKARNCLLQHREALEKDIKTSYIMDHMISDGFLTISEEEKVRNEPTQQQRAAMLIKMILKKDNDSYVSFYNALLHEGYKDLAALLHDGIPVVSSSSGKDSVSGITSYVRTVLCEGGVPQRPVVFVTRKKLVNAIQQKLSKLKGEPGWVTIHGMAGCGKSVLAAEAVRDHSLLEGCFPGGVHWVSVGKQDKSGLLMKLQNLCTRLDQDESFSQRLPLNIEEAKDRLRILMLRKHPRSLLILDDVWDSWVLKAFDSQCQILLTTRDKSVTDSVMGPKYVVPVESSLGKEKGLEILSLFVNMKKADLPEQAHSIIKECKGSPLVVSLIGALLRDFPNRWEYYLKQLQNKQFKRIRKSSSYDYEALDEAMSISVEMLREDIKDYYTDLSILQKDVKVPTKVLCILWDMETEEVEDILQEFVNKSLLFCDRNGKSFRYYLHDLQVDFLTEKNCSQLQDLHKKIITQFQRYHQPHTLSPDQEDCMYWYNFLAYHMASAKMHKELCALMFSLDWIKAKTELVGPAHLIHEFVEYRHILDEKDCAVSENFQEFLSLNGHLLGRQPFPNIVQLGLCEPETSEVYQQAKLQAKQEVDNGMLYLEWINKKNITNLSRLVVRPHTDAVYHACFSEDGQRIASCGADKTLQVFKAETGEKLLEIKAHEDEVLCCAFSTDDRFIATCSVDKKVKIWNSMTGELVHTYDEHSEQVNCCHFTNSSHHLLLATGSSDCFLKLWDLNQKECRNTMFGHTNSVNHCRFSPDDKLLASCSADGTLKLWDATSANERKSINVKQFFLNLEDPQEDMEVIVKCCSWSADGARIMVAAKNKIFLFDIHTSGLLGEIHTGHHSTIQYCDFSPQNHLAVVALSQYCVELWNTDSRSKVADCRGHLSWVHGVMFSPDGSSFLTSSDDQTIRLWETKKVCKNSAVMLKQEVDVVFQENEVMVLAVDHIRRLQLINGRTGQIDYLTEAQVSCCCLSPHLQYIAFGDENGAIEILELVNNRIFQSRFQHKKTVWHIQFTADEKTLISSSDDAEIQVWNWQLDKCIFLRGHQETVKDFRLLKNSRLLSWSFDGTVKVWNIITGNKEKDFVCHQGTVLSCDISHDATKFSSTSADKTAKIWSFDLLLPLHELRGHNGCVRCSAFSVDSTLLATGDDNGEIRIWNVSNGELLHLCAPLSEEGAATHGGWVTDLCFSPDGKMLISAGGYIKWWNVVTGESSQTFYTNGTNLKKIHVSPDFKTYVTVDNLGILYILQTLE
Chain of Cytochrome P450 3A4 (P08684 whole entry): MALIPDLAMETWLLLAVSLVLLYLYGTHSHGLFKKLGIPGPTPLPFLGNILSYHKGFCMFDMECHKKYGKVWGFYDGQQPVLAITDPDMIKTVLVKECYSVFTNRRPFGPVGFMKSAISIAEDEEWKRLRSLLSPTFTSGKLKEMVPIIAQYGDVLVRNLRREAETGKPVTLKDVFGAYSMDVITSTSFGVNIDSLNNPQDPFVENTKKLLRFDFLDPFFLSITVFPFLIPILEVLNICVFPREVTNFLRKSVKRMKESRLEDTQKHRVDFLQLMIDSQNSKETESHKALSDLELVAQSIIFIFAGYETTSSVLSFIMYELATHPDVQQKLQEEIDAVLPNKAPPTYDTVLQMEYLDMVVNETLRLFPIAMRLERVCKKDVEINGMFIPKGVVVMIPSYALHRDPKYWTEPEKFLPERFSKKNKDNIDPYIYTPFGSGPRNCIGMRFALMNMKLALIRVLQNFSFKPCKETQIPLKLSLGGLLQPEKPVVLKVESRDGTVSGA
Chain of Nonstructural protein 1 (Q194T2 whole entry): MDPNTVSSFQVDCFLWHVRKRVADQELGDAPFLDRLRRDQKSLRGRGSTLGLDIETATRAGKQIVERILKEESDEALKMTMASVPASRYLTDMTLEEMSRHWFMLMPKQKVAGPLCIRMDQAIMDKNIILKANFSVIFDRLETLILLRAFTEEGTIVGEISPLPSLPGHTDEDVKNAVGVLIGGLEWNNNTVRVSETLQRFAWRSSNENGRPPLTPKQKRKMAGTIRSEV

Regarding `NS(=O)(=O)c1ccccc1`, the results for the IC50 in assay [1], in assay [2] and in assay [3] were 8.42 µM (active), 28.6 µM (inactive) and 1.5 µM (active), respectively.
As to `C[C@H]1CN([C@@H](C)CO)C(=O)c2cccc(NC(=O)c3ccncc3)c2O[C@@H]1CN(C)Cc1ccc(-c2ccccc2)cc1`, the IC50 in assay [4] was 1.14 µM (active); in assay [5], 17.5 µM (active); in assay [6], 1.14 µM (active); in assay [7] it was 6.47 µM (inactive); in assay [9], 6.41 µM (inactive); in [10] it was 10 µM (inconclusive). Besides, in assay [8], the AC50 (in general, the concentration at which the activity in the assay is half-maximal) was 0.075 µM (active).
Turning to `Cc1cc2oc(=O)cc(-c3cc4ccccc4o3)c2cc1O`, the IC50 was 3.8 µM (active) in assay [11], 21.5 µM (inactive) in assay [12], 20.7 µM (inactive) in [13] and 29.1 µM (inactive) in assay [14].
On to `COc1ccccc1[C@]1(C)ON(c2ccccc2C(F)(F)F)C1=O`, for which the AC50 with HEK293 was 7.34 µM (active). For the same compound, the IC50 was 24.3 µM (active) on Interleukin-8 [15] and 8 µM (active) at Interleukin-8 [16].
As to `Cc1nn(-c2ccccc2)c(O)c1/C=N/NC(=O)c1ccc(O)cc1O`, the IC50 on Nonstructural protein 1 was 3.09 µM (active); in [18] it was 5.15 µM (active). For the same compound, in assay [17], the AC50 was 2.5 µM (active). Moreover, the EC50 (usually the concentration at which the effect is half-maximal) on Protein RecA was 3.13 µM (active).
With `CCOc1ccc2nc(C)cc(Nc3ccc4c(c3)OCCO4)c2c1`, the results for the EC50 in assay [19] and in assay [20] were 14.7 µM (active) and 11.3 µM (active), respectively. Besides, the AC50 is 25 µM (active) in assay [21] and 25.1 µM (inconclusive) at Cytochrome P450 3A4.
